EC50 and IC50 data for three molecules are collected here from ChEMBL document CHEMBL1201862, “PubChem BioAssay data set” (2004).

A short description of test [1]: Luminescence Cell-Based Dose Response HTS to Identify Activators of Luciferase Translation or Activity in H4-C Neuroglioblastoma Cells. [Related pubchem assays: 1829 (Project Summary), 1814 (Primary HTS)]. It is filed as functional.
Test [2] in a line: Luminescence Cell-Based Dose Retest to Confirm Activators of 5'UTR Stem-Loop Driven Alpha-Synuclein mRNA Translation in H4 Neuroglioblastoma Cells. [Related pubchem assays (depositor defined):AID1813, AID1829]. It is filed as functional.
For a further test, the system named is H4. The test is described as follows: Luminescence Cell-Based Dose Response HTS to Identify Activators of 5'UTR Stem-Loop Driven Prion Protein mRNA Translation in H4 Neuroglioblastoma Cells. [Related pubchem assays: 1829 (Project Summary), 1814 (Primary HTS)]. It is filed as functional. Conditions: Homo sapiens.
Test [3] in a line: NIH3T3 cell viability loss – ATP luminescence, mouse fibroblasts, counter-screen, dose response (AID 2010).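 Further: cells exposed to compound for about 90 hours before reading.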 It is filed as functional, cell-based.
For test [4], the target named is T1, Heat shock factor protein 1 (Mus musculus, UniProt P38532).
T1 sequence (P38532 whole entry): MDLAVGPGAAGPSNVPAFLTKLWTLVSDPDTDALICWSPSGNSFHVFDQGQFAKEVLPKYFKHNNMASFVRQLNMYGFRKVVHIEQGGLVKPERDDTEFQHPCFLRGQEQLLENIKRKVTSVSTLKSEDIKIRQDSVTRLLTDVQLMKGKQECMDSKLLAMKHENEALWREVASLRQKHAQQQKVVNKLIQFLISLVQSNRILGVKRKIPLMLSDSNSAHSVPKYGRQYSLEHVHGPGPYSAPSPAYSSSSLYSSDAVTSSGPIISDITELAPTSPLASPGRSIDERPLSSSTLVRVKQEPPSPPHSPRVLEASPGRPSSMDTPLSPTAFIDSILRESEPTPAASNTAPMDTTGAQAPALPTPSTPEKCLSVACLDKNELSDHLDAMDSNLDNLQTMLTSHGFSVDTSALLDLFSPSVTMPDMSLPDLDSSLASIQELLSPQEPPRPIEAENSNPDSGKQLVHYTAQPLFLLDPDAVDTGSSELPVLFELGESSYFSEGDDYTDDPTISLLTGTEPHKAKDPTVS
The test can be described thus: enhancement of HSF1-driven luciferase signal – cell-based, NIH3T3, luminescence, dose retest, confirmation (AID 435004).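 Further: stress induced by proteasome inhibitor MG132 added 30 min after compound; luciferase reporter driven by HSF1 response element in NIH3T3 cells; actives raise luminescence as potentiators of the MG132 stress response.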 Type of test: functional.

The next test deals with SUMO-activating enzyme (Homo sapiens, UniProt Q9UBT2). The test is described as follows: blockers of SAE1/SAE2–UBC9 SUMO transfer – biochemical, HTRF, uHTS, primary screen (AID 2006). It is filed as protein-complex assay.
SUMO-activating enzyme, sequence (Q9UBE0 whole entry): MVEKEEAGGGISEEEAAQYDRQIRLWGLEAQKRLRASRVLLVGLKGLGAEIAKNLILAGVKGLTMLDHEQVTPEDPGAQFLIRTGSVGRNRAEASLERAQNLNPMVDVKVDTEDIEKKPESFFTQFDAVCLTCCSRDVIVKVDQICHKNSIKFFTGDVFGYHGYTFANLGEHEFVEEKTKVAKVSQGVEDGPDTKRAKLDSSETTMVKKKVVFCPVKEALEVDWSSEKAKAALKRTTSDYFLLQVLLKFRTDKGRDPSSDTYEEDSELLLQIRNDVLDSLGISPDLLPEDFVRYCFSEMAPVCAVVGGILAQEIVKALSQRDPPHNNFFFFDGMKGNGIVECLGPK
SUMO-activating enzyme, sequence (Q9UBT2 whole entry): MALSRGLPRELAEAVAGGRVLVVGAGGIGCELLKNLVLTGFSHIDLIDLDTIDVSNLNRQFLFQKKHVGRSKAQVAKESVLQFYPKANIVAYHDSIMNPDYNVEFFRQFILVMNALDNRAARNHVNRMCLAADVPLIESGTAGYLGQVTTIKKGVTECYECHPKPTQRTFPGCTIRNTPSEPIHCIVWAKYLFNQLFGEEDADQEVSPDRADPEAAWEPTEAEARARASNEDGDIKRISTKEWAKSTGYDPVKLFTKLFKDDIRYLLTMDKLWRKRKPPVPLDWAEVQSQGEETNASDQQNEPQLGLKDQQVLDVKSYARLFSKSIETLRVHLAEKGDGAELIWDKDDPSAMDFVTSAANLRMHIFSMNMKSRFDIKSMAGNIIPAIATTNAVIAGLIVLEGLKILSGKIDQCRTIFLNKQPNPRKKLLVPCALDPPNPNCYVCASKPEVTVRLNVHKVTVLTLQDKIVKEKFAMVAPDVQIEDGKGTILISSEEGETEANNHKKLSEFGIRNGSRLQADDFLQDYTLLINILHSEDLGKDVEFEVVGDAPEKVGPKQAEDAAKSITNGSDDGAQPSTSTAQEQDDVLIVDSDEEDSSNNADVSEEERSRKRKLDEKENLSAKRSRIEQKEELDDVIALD
In a further test the target is Genome polyprotein (dengue virus type 2, UniProt P29990). The test can be described thus: flavivirus cap methylation enzyme inhibition – biochemical, confirmation dose response, primary screen (AID 588689). Type of test: functional.
Genome polyprotein, sequence (P29990 2492-3391 limits assumed): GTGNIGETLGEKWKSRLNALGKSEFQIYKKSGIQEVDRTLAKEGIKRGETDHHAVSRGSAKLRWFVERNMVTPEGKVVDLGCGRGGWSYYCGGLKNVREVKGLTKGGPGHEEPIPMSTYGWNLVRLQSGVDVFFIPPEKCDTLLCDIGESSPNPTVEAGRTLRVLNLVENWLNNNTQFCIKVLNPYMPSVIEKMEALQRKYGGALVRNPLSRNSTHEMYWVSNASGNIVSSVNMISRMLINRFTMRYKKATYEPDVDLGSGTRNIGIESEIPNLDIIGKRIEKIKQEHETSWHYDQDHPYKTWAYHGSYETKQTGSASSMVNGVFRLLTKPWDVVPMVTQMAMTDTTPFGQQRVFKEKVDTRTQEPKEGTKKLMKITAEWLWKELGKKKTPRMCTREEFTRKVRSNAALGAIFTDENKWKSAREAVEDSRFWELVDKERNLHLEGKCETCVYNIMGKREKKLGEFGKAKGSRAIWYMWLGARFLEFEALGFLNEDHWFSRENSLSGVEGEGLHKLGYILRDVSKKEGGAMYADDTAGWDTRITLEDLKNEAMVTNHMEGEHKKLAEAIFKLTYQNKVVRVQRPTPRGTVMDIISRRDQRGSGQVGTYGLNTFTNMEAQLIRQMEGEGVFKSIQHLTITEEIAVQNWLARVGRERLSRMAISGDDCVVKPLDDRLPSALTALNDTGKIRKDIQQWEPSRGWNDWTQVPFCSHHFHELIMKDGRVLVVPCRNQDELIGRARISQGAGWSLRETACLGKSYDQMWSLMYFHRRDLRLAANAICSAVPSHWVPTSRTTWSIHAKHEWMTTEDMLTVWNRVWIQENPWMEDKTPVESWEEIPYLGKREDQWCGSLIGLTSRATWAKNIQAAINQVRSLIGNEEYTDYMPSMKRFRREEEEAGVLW
Test [5] deals with Small ubiquitin-related modifier 1 (Homo sapiens, UniProt P63165). The test is described as follows: SUMO1 protein interaction blockers, potency – biochemical, fluorescence polarization, uHTS hits, dose response (AID 624382). Type of test: functional. The following applies: read-out: IC50_Mean.
Small ubiquitin-related modifier 1, sequence (P63165 whole entry): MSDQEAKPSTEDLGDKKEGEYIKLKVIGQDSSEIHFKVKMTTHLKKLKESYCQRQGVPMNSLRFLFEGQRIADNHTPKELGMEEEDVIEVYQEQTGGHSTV
Test [6] deals with T2, Sentrin-specific protease 6 (Homo sapiens, UniProt Q9GZR1).
T2 sequence (Q9GZR1 whole entry): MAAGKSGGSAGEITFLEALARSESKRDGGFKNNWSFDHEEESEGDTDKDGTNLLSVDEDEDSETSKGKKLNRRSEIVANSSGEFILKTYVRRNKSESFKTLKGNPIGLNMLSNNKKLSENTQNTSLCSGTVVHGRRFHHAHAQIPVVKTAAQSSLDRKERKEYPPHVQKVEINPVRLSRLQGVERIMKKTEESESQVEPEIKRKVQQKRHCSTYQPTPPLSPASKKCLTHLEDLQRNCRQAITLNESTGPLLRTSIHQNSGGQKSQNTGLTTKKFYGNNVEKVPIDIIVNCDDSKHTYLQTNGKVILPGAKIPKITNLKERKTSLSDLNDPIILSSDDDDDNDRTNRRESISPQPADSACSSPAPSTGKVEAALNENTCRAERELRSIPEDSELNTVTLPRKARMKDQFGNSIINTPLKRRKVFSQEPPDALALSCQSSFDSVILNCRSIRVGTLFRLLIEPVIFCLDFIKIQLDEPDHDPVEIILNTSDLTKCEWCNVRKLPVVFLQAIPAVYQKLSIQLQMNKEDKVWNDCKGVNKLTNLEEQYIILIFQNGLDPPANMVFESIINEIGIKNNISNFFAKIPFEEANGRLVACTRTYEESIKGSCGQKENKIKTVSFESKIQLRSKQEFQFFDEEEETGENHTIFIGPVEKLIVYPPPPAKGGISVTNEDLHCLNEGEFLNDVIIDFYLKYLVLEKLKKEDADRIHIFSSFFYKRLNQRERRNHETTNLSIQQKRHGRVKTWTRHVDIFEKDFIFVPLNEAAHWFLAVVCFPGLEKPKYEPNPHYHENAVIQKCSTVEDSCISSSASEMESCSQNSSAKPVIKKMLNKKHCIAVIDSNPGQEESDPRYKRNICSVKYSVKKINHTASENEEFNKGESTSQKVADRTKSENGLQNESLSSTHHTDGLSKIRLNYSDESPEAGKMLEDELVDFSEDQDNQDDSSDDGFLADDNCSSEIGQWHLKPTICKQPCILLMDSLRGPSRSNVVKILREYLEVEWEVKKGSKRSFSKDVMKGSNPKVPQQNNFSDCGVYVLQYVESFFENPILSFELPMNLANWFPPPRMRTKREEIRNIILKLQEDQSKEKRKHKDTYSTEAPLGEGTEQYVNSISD
The test can be described thus: SAR Analysis of small molecule inhibitors of Sentrin-specific protease 6 (SENP6) using a Luminescent assay. [Related pubchem assays (depositor defined):AID2582, AID2599]. Type of test: functional.

The source made the active and inactive calls.

Consider `c1ccc2c(Nc3nnc(-c4ccncc4)s3)cccc2c1`, for which the EC50 in [1] was 1.06 µM (active); in test [2], 2.04 µM (active); with H4, 13.8 µM (active); in test [3], > 60 µM (not active); in test [4] it was 42.1 µM (active).

As for `N#Cc1c(O)nc(SCC(=O)N2c3ccccc3Sc3ccccc32)nc1-c1ccccc1`, the IC50 on SUMO-activating enzyme was 14.3 µM (active); at Genome polyprotein, 38.9 µM (active); in [5] it was 21 µM (inactive).

`COc1cc(C(=O)c2nccc3cc(OC)c(OC)cc23)c([N+](=O)[O-])cc1OC`: in test [6], the IC50 is 66.8 µM (active).
